{"source": "patent US20210228497A1", "about": "“New Medical Devices, Delivery Vehicles and Manufacturing Thereof” (Remy Biosciences, Inc., priority 2018, published 2021)", "assay": "Saturation concentration of CBD in adhesive matrix (turbidity / flux plateau)", "assay_type": "physicochemical", "data": [{"compound": "C=C(C)[C@@H]1CCC(C)=C[C@H]1c1c(O)cc(CCCCC)cc1O", "note": "[CBD, cannabidiol]", "values": [{"measurement": "Saturation concentration of CBD in acrylate adhesive Durotak 87-2287", "setting": "Durotak 87-2287 adhesive matrix", "result": 30, "unit": "%"}, {"measurement": "Saturation concentration of CBD in PIB adhesive", "setting": "un-tackified PIB adhesive matrix", "result": 12, "unit": "%"}]}]}
